Legend:
[1] = target: T1, EP2 (Homo sapiens, UniProt P43116); assay: EP2 flipr functional assay; format: cell-based
From the text: (§1) U.S. patent application Ser. No. 11/553,143, filed on Oct. 26, 2006, incorporated by reference herein, describes the methods used to obtain the in vitro data in the table below.

[2] = target: T1, EP2; assay: EP2 cAMP assay; format: cell-based
From the text: as §1

[3] = target: T2, EP4 (Homo sapiens, UniProt P35408); assay: EP4 binding (KI)
From the text: as §1

[4] = target: T2, EP4; assay: EP4 flipr functional assay; format: cell-based
From the text: as §1

[5] = target: T1, EP2; assay: EP2 binding (KI)
From the text: as §1

[6] = target: T3, hDP (Homo sapiens, UniProt Q13258); assay: Other receptors functional assay, hDP; format: cell-based
T3 sequence (Q13258 1-359): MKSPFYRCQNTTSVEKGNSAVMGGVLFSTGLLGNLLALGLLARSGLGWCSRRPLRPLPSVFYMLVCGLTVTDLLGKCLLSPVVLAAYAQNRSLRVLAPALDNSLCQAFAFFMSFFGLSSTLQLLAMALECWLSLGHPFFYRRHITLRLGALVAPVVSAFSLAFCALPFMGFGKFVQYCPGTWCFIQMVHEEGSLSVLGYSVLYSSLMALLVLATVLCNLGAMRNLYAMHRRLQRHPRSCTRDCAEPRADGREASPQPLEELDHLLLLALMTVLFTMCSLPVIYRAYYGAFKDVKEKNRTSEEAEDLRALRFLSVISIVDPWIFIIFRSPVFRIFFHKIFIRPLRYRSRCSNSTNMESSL
From the text: as §1

T1 sequence (P43116 whole entry): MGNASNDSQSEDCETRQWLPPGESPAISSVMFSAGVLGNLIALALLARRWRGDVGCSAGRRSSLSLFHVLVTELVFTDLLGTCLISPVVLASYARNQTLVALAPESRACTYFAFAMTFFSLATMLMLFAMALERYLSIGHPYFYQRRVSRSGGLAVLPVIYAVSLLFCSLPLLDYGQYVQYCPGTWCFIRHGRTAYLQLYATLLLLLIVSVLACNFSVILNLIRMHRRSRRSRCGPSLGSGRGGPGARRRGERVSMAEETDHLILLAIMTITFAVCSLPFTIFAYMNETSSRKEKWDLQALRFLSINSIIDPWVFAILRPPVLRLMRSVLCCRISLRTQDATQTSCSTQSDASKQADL
T2 sequence (P35408 whole entry): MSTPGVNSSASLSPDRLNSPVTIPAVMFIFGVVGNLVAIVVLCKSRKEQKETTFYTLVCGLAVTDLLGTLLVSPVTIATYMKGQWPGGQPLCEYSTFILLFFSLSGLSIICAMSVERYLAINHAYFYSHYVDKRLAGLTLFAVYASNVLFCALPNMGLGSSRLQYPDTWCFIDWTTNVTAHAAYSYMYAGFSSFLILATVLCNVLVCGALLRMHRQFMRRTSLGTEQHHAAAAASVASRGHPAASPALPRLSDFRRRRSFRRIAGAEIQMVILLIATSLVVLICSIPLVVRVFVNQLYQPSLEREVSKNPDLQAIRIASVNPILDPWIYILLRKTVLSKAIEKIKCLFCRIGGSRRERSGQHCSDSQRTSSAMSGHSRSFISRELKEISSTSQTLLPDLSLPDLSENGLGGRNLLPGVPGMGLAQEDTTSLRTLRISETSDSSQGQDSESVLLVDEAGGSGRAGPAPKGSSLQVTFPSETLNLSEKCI

Row | EC50 [1] | EC50 [2] | Ki [3] | EC50 [4] | Ki [5] | EC50 [6] | Compound
1 | > 10 µM | 0.004 µM | 7.99 µM | > 10 µM | 0.159 µM | – | O=C(O)c1ccc(COC[C@H]2CCC(=O)N2CCc2cc(Cl)cc(Cl)c2)s1 [(R)-5-(((1-(3,5-dichlorophenethyl)-5-oxopyrrolidin-2-yl)methoxy)methyl)thiophene-2-carboxylic acid]
2 | 8.41 µM | 0.0022 µM | > 10 µM | – | 0.024 µM | 6.22 µM | O=C(O)c1ccc(CCC[C@H]2CCC(=O)N2CCc2cc(Cl)cc(Cl)c2)s1 [(S)-5-(3-(1-(3,5-dichlorophenethyl)-5-oxopyrrolidin-2-yl)propyl)thiophene-2-carboxylic acid]
